Experimental findings from PMC11580984 (bioRxiv, 2024) are described below.

Numbered stars: 1 amine (or outer) side, 2 acyl side, 3 side chain; on linkers, the order of the positions; unused ones are H or OH. Bridge positions count the residues as written; N and C are the ends. Square brackets hold non-standard residues; d marks the D form. Peptide text beside a SMILES is read from it. X1 = O=S(=O)(F)Oc1cc(C[*:1])cc(C[*:2])c1; Pra = C#CC[C@H](N)C(=O)O

The target in this assay is full-length spike Omicron BA2 variant (Severe acute respiratory syndrome coronavirus 2, UniProt P0DTC2, A27S/A892P/A899P/A942P/D405N/D614G/D796Y/DEL24-26/E484A/F817P/G142D/G339D/H655Y/K417N/K986P/N440K/N501Y/N679K/N764K/N969K/P681H/Q493R/Q498R/Q954H/R408S/R683A/R685A/S371F/S373P/S375F/S477N/T19I/T376A/T478K/V213G/V987P/Y505H). Type of assay: binding, SARS-CoV-2.
As to `C#CC[C@H](N)C(=O)N[C@@H](CCC(N)=O)C(=O)N[C@H]1CSCc2cc(cc(OS(=O)(=O)F)c2)CSC[C@@H](C(=O)NCC(N)=O)NC(=O)[C@H](CC(C)C)NC(=O)[C@H](C(C)C)NC(=O)[C@H](Cc2ccc(O)cc2)NC(=O)[C@H](CC(C)C)NC(=O)[C@H](CC(=O)O)NC(=O)[C@H](CCC(N)=O)NC(=O)[C@H](C(C)C)NC1=O` [CP_SW3A] (H-[Pra]QCVQDLYVLCG-NH2; linker 3-11 via X1), the “spike labeling” value is on record as “highest gel labeling intensity”.
As for `C#CC[C@H](NC(=O)[C@H](CCC(N)=O)NC(=O)[C@@H]1CSCc2cc(cc(OS(=O)(=O)F)c2)CSC[C@H](NC(=O)CN)C(=O)N[C@@H](CC(C)C)C(=O)N[C@@H](C(C)C)C(=O)N[C@@H](Cc2ccc(O)cc2)C(=O)N[C@@H](CC(C)C)C(=O)N[C@@H](CC(=O)O)C(=O)N[C@@H](CCC(N)=O)C(=O)N[C@@H](C(C)C)C(=O)N1)C(N)=O` [CP_SW3A_S1] (H-GCLVYLDQVCQ[Pra]-NH2; linker 2-10 via X1), the “spike labeling” value was “dramatically reduced labeling”.
The result for `C#CC[C@H](N)C(=O)N[C@@H](CCC(N)=O)C(=O)N[C@H]1CSCc2cc(cc(OS(=O)(=O)F)c2)CSC[C@@H](C(=O)NCC(N)=O)NC(=O)[C@H](C(C)C)NC(=O)[C@H](CCC(N)=O)NC(=O)[C@H](CC(=O)O)NC(=O)[C@H](CC(C)C)NC(=O)[C@H](Cc2ccc(O)cc2)NC(=O)[C@H](C(C)C)NC(=O)[C@H](CC(C)C)NC1=O` [CP_SW3A_S2] (H-[Pra]QCLVYLDQVCG-NH2; linker 3-11 via X1) reads “dramatically reduced labeling”.
